For the assay, the target named is cytochrome bo oxidase (Escherichia coli, UniProt P0ABI8). In kind it is biochemical.

SMILES strings stand for the structures.

The text below walks through data of publication PMC4925259 (Molecular microbiology, 2016).

One may read the IC50 as the point on the concentration scale where inhibition reaches its midpoint. A low value points to greater potency in that assay.

Chain of cytochrome bo oxidase (P0ABI8 whole entry): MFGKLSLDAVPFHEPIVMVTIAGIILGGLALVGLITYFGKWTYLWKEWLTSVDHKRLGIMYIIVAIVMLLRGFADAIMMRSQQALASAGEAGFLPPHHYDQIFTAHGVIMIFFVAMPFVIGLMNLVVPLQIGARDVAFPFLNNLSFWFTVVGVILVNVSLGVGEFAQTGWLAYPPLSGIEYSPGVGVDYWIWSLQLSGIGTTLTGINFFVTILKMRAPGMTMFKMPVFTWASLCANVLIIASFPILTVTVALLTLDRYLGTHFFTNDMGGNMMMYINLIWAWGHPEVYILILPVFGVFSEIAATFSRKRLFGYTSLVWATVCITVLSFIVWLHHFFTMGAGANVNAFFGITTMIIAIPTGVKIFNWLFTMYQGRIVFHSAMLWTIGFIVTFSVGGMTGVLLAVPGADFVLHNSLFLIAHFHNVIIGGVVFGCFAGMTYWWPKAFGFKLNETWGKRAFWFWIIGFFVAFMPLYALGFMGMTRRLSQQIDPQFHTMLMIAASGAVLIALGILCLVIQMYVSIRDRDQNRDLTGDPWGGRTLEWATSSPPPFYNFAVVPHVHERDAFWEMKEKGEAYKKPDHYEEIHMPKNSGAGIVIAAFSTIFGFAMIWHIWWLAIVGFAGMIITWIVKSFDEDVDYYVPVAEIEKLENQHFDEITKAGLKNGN
Chain of cytochrome bo oxidase (P0ABJ1 25-315 partner): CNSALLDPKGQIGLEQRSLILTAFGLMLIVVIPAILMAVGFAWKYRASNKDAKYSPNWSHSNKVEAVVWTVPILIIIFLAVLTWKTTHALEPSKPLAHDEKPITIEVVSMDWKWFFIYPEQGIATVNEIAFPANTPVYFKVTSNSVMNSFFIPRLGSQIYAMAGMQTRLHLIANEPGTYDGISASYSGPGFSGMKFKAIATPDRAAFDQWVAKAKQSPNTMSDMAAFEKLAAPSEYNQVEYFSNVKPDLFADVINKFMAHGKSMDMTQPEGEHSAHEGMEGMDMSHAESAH
Chain of cytochrome bo oxidase (P0ABJ3 whole entry partner): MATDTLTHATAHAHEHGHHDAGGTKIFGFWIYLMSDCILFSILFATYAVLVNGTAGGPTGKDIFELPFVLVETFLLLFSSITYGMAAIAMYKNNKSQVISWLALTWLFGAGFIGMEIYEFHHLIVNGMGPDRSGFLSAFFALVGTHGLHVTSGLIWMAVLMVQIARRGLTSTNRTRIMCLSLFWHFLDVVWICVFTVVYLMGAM
Chain of cytochrome bo oxidase (P0ABJ6 whole entry partner): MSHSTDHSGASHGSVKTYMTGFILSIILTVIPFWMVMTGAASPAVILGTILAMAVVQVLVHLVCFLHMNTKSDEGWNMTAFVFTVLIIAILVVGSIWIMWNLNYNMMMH

`S` [hydrogen sulfide] yielded an IC50 of approximately 5 µM.
